The values below are quoted from earlier work in patent US20090214619A1, “IMPLANT FOR INTRAOCULAR DRUG DELIVERY” (THERAKINE LTD., priority 2004, published 2009).

Data set [1] deals with degenerative diseases such as choroidal neovascularization, macular edema, macular degeneration, branch retinal vein occlusion. The conditions noted are these: patients with choroidal neovascularization.
In data set [2] the test system is HSP induced uveitis. The following applies: rats with HSP induced uveitis; decreased from 68% without treatment.

For Infliximab: chimeric Anti TNF Mab, the effect on vision result in data set [1] is on record as “improve vision”.

B1: IL-4: pleiotropic cytokine produced by activated T cells, mast cells, and basophiles (protein, UniProt P05112 25-153, looked up)
Interleukin-4: HKCDITLQEIIKTLNSLTEQKTLCTELTVTDIFAASKNTTEKETFCRAATVLRQFYSHHEKDTRCLGATAQQFHRHKQLIRFLKRLDRNLWGLAGLNSCPVKEANQSTLENFLERLKTIMREKYSKCSS
With B1, the development of uveitis in data set [2] was 30.4%.
